# In ChEMBL document CHEMBL1201862, “PubChem BioAssay data set” (2004):
#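 The compound was tested at five concentrations on cells cultured in 96-well plates, with a 48-hour exposure period. The concentration for 50% growth inhibition is given as GI50.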 The source made the active and inactive calls. Cut-off read from the data, not from the text of the source: active = GI50 up to about 1.1 µM and inactive = higher.
# Experiments:
# Test in all cases: inhibition of tumour cell growth, NCI panel, 48 h
# NCI/ADR-RES = test system: NCI/ADR-RES
# MOLT-4 = test system: MOLT-4
# HCT-15 = test system: HCT-15
# 786-0 = test system: 786-0
# Hs-578T = test system: Hs-578T
# SN12C = test system: SN12C
# SW-620 = test system: SW-620
# KM12 = test system: KM12
# MDA-MB-435 = test system: MDA-MB-435
# OVCAR-5 = test system: OVCAR-5
# NCI-H460 = test system: NCI-H460
# SK-MEL-2 = test system: SK-MEL-2
# MDA-MB-231 = test system: MDA-MB-231
# SK-MEL-28 = test system: SK-MEL-28
# OVCAR-3 = test system: OVCAR-3
# ACHN = test system: ACHN
# HT-29 = test system: HT-29
# Malme-3M = test system: Malme-3M
# SF-268 = test system: SF-268
# HOP-92 = test system: HOP-92
Structure (SMILES),GI50 (NCI/ADR-RES),GI50 (MOLT-4),GI50 (HCT-15) [µM],GI50 (786-0),GI50 (Hs-578T),GI50 (SN12C),GI50 (SW-620),GI50 (KM12),GI50 (MDA-MB-435),GI50 (OVCAR-5),GI50 (NCI-H460),GI50 (SK-MEL-2),GI50 (MDA-MB-231),GI50 (SK-MEL-28),GI50 (OVCAR-3),GI50 (ACHN),GI50 (HT-29),GI50 (Malme-3M),GI50 (SF-268),GI50 (HOP-92)
O=[N+]([O-])/C(C(Cl)=C(Cl)Cl)=C(\Nc1cccc2cccnc12)Sc1ccccc1,22.1 µM (inactive),12.9 µM (inactive),17.5,20 µM (inactive),13.4 µM (inactive),22.2 µM (inactive),18 µM (inactive),12.6 µM (inactive),18.7 µM (inactive),20.8 µM (inactive),34.4 µM (inactive),17.1 µM (inactive),18.2 µM (inactive),20.4 µM (inactive),11.4 µM (inactive),22.8 µM (inactive),23.4 µM (inactive),23.1 µM (inactive),17.9 µM (inactive),–
CC(=O)N(C(C)=O)n1c(-c2ccccc2)n[nH]c1=O,> 100 µM (inactive),> 100 µM (inactive),> 100,> 100 µM (inactive),–,> 100 µM (inactive),> 100 µM (inactive),> 100 µM (inactive),> 100 µM (inactive),> 100 µM (inactive),–,> 100 µM (inactive),> 100 µM (inactive),> 100 µM (inactive),> 100 µM (inactive),> 100 µM (inactive),> 100 µM (inactive),–,> 100 µM (inactive),> 100 µM (inactive)
CC(=O)N1C(Nc2cnc3ccccc3c2)CCN1c1ccccc1 (stereo unspecified),> 10 µM (inactive),> 10 µM (inactive),> 10,> 10 µM (inactive),> 10 µM (inactive),> 10 µM (inactive),4.78 µM (inactive),–,> 10 µM (inactive),> 10 µM (inactive),> 10 µM (inactive),> 10 µM (inactive),> 10 µM (inactive),> 10 µM (inactive),> 10 µM (inactive),9.57 µM (inactive),> 10 µM (inactive),> 10 µM (inactive),> 10 µM (inactive),–
Cc1cc(O)c(O)c(Oc2cc(C)cc(O)c2O)c1,–,10 µM (inactive),9.14,18.2 µM (inactive),48.4 µM (inactive),13.2 µM (inactive),16.9 µM (inactive),22 µM (inactive),12.7 µM (inactive),34.2 µM (inactive),11.1 µM (inactive),21.5 µM (inactive),20.3 µM (inactive),32.2 µM (inactive),4.48 µM (inactive),11.6 µM (inactive),20.8 µM (inactive),> 10 µM (inactive),17.8 µM (inactive),16.6 µM (inactive)
CNC(=O)N(CCC#N)CCN(CCN(C(=O)NC)c1ccccc1)C(=O)NC,> 100 µM (inactive),> 100 µM (inactive),> 100,> 100 µM (inactive),–,> 100 µM (inactive),> 100 µM (inactive),> 100 µM (inactive),> 100 µM (inactive),> 100 µM (inactive),> 100 µM (inactive),> 100 µM (inactive),> 100 µM (inactive),> 100 µM (inactive),> 100 µM (inactive),> 100 µM (inactive),> 100 µM (inactive),> 100 µM (inactive),–,> 100 µM (inactive)
CC1=C(C(=O)OC(C)C)C(c2ccccc2C(F)(F)F)C(C(=O)OC(CO[N+](=O)[O-])CO[N+](=O)[O-])=C(C)N1 (stereo unspecified),4.39 µM (inactive),2.17 µM (inactive),7.96,2.87 µM (inactive),15.8 µM (inactive),4.09 µM (inactive),5.79 µM (inactive),5.14 µM (inactive),6.28 µM (inactive),19.3 µM (inactive),5.19 µM (inactive),14.1 µM (inactive),12.3 µM (inactive),16.8 µM (inactive),9.31 µM (inactive),4.79 µM (inactive),5.79 µM (inactive),12.2 µM (inactive),8.63 µM (inactive),–
COC(=O)C1CC2(C)C=CC1N(C(=O)OCc1ccccc1)C2 (stereo unspecified),41.3 µM (inactive),31.6 µM (inactive),94,> 100 µM (inactive),86.5 µM (inactive),> 100 µM (inactive),> 100 µM (inactive),52.1 µM (inactive),79.6 µM (inactive),> 100 µM (inactive),> 100 µM (inactive),> 100 µM (inactive),> 100 µM (inactive),> 100 µM (inactive),55.8 µM (inactive),> 100 µM (inactive),46.2 µM (inactive),> 100 µM (inactive),> 100 µM (inactive),–
O=C(O)CSCc1cc2c(O)c(c1)Cc1cc(CSCC(=O)O)cc(c1O)Cc1cc(CSCC(=O)O)cc(c1O)Cc1cc(CSCC(=O)O)cc(c1O)C2,> 100 µM (inactive),> 100 µM (inactive),> 100,> 100 µM (inactive),> 100 µM (inactive),> 100 µM (inactive),> 100 µM (inactive),> 100 µM (inactive),61.1 µM (inactive),> 100 µM (inactive),> 100 µM (inactive),> 100 µM (inactive),–,> 100 µM (inactive),> 100 µM (inactive),> 100 µM (inactive),> 100 µM (inactive),> 100 µM (inactive),> 100 µM (inactive),> 100 µM (inactive)
Oc1c2cc(Br)cc1CCc1cc(Br)cc(c1O)CC2,21.6 µM (inactive),18 µM (inactive),30.5,30.2 µM (inactive),23.1 µM (inactive),41.9 µM (inactive),24.3 µM (inactive),17.3 µM (inactive),29.2 µM (inactive),23.2 µM (inactive),18.5 µM (inactive),20 µM (inactive),14 µM (inactive),27 µM (inactive),20.2 µM (inactive),23.7 µM (inactive),15.6 µM (inactive),28.8 µM (inactive),22.6 µM (inactive),–
N=c1oc2cc(O)ccc2cc1C(=O)NCc1ccccc1,19.7 µM (inactive),15.7 µM (inactive),27.2,32.1 µM (inactive),15.3 µM (inactive),19.5 µM (inactive),22.6 µM (inactive),32.3 µM (inactive),17.7 µM (inactive),53.7 µM (inactive),25.8 µM (inactive),14.4 µM (inactive),24 µM (inactive),27.6 µM (inactive),22.6 µM (inactive),14.5 µM (inactive),18.8 µM (inactive),21.7 µM (inactive),23.1 µM (inactive),–
COc1ccc(C2=C(Cl)C(=O)O/C2=C\c2ccc(OC)c(Br)c2)cc1Cl,37.8 µM (inactive),41.5 µM (inactive),55.2,17.2 µM (inactive),27.4 µM (inactive),–,> 100 µM (inactive),> 100 µM (inactive),> 100 µM (inactive),43.5 µM (inactive),27.7 µM (inactive),25.2 µM (inactive),–,> 100 µM (inactive),23 µM (inactive),16.3 µM (inactive),> 100 µM (inactive),54 µM (inactive),16.5 µM (inactive),24 µM (inactive)
C/C(=C/c1ccccc1)CN(C(=O)/C=C\Sc1ccccc1)C(C)(C)C,> 34.6 µM (inactive),3.87 µM (inactive),37.2,> 100 µM (inactive),–,> 100 µM (inactive),> 100 µM (inactive),> 100 µM (inactive),> 100 µM (inactive),> 100 µM (inactive),> 100 µM (inactive),> 75.9 µM (inactive),> 100 µM (inactive),> 100 µM (inactive),> 75.3 µM (inactive),> 100 µM (inactive),36.4 µM (inactive),> 100 µM (inactive),–,4.85 µM (inactive)
COc1cc2c3c(n(C)c(=O)c2cc1OC)-c1cc2c(cc1/C3=C\CCCCl)OCO2,46.8 µM (inactive),6.68 µM (inactive),> 100,16.7 µM (inactive),47.4 µM (inactive),–,> 100 µM (inactive),23.8 µM (inactive),–,> 100 µM (inactive),43.8 µM (inactive),25.5 µM (inactive),27.3 µM (inactive),89.7 µM (inactive),–,29.7 µM (inactive),39.7 µM (inactive),> 100 µM (inactive),43.6 µM (inactive),82.2 µM (inactive)
O=C(c1ccccc1)N1C(=S)N(c2ccccn2)C(=N/c2ccccc2)/C1=N\c1ccccc1,10.5 µM (inactive),4.01 µM (inactive),3.79,16.7 µM (inactive),–,31.5 µM (inactive),5.19 µM (inactive),5.43 µM (inactive),19.6 µM (inactive),11.2 µM (inactive),29.5 µM (inactive),13.6 µM (inactive),23.3 µM (inactive),22.3 µM (inactive),18.2 µM (inactive),9.93 µM (inactive),11.5 µM (inactive),20 µM (inactive),24.9 µM (inactive),6.67 µM (inactive)
CN(C)/N=N/c1nc2c(c(=O)n(C)c(=O)n2C)n1CC1CO1 (stereo unspecified),16.6 µM (inactive),12.3 µM (inactive),14.2,16.6 µM (inactive),–,15.7 µM (inactive),15 µM (inactive),13.4 µM (inactive),16.7 µM (inactive),32 µM (inactive),10.1 µM (inactive),10.7 µM (inactive),16.9 µM (inactive),20.7 µM (inactive),15.8 µM (inactive),10.8 µM (inactive),13.6 µM (inactive),9.18 µM (inactive),11.6 µM (inactive),–
